Source: publication PMC12162337, “Vitexicarpin suppresses colorectal and non-small cell lung cancer via selective inhibition of Anoctamin 1” (Frontiers in Pharmacology, 2025)

Tests used:
Type in all cases: cell-based
[1] = biological target: T1, Anoctamin 1 (ANO1, TMEM16A) (Homo sapiens, UniProt Q5XXA6); experiment: YFP iodide-influx quenching assay and short-circuit current (Ussing chamber)
T1 construct: endogenous ANO1 in PC9-YFP cells; ANO1-expressing FRT cells
T1 sequence (Q5XXA6 1-986): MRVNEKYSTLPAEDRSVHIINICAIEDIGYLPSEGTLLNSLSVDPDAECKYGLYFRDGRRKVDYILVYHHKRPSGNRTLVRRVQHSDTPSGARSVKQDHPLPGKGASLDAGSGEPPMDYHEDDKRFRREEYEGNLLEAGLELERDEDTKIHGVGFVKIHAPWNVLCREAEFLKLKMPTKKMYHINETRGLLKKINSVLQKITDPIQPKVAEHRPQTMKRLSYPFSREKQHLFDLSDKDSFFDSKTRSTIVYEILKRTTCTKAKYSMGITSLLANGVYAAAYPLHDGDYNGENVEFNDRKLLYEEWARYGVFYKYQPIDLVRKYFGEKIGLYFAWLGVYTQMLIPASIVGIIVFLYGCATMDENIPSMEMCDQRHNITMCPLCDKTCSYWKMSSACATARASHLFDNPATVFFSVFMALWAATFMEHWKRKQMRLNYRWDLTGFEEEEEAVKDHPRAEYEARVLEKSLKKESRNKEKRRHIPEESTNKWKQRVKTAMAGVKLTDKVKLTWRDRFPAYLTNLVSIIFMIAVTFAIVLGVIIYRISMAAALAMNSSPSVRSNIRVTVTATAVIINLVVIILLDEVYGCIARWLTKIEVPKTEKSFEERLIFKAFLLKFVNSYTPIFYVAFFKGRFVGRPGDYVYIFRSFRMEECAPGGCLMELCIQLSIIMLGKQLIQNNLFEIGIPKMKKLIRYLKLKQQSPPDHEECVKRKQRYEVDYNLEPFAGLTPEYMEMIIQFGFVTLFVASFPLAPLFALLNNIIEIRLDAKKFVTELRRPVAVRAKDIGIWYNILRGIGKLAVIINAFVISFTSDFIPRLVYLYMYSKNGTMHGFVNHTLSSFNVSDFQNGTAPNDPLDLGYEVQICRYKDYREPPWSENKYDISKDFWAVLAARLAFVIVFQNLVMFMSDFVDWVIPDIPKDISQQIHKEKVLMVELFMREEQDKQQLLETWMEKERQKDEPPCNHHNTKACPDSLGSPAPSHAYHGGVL

hERG channel = biological target: T2, hERG channel (Homo sapiens, UniProt Q12809); experiment: automated patch clamp (PatchLiner), hERG tail current
T2 construct: gene KCNH2; hERG-overexpressing HEK cells
T2 sequence (Q12809 whole entry): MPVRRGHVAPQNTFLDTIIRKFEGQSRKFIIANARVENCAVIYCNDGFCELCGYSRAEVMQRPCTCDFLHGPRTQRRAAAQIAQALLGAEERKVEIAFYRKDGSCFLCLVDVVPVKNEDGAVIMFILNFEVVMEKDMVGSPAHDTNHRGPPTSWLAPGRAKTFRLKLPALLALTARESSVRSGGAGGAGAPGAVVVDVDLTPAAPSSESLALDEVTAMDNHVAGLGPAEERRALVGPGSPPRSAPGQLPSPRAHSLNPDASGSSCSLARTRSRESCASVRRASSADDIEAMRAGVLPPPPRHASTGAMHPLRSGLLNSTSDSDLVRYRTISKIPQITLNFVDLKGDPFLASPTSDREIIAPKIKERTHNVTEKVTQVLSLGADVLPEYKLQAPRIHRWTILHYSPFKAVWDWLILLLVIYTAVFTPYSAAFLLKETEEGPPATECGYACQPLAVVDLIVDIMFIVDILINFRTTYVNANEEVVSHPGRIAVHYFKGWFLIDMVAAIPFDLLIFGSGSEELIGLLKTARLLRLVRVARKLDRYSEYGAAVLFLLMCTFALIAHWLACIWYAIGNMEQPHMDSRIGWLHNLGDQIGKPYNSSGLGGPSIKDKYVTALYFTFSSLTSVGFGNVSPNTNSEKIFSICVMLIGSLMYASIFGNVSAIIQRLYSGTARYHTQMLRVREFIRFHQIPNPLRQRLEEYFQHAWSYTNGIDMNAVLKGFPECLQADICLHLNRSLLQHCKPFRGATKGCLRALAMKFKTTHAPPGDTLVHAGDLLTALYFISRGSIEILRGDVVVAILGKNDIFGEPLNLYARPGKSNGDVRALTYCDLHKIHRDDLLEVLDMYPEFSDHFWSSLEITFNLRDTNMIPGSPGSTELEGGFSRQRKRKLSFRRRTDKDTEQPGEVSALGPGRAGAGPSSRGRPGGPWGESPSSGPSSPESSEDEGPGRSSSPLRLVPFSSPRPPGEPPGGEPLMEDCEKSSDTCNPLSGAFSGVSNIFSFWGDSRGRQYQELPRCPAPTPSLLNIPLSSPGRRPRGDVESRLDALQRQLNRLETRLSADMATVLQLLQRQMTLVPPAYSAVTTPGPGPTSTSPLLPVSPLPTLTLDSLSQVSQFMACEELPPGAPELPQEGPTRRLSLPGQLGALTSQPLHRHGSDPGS

CFTR = biological target: T3, CFTR (Homo sapiens, UniProt P13569); experiment: short-circuit current (Ussing chamber), forskolin-activated; complete block at […]
T3 construct: CFTR-expressing FRT cells
T3 sequence (P13569 whole entry): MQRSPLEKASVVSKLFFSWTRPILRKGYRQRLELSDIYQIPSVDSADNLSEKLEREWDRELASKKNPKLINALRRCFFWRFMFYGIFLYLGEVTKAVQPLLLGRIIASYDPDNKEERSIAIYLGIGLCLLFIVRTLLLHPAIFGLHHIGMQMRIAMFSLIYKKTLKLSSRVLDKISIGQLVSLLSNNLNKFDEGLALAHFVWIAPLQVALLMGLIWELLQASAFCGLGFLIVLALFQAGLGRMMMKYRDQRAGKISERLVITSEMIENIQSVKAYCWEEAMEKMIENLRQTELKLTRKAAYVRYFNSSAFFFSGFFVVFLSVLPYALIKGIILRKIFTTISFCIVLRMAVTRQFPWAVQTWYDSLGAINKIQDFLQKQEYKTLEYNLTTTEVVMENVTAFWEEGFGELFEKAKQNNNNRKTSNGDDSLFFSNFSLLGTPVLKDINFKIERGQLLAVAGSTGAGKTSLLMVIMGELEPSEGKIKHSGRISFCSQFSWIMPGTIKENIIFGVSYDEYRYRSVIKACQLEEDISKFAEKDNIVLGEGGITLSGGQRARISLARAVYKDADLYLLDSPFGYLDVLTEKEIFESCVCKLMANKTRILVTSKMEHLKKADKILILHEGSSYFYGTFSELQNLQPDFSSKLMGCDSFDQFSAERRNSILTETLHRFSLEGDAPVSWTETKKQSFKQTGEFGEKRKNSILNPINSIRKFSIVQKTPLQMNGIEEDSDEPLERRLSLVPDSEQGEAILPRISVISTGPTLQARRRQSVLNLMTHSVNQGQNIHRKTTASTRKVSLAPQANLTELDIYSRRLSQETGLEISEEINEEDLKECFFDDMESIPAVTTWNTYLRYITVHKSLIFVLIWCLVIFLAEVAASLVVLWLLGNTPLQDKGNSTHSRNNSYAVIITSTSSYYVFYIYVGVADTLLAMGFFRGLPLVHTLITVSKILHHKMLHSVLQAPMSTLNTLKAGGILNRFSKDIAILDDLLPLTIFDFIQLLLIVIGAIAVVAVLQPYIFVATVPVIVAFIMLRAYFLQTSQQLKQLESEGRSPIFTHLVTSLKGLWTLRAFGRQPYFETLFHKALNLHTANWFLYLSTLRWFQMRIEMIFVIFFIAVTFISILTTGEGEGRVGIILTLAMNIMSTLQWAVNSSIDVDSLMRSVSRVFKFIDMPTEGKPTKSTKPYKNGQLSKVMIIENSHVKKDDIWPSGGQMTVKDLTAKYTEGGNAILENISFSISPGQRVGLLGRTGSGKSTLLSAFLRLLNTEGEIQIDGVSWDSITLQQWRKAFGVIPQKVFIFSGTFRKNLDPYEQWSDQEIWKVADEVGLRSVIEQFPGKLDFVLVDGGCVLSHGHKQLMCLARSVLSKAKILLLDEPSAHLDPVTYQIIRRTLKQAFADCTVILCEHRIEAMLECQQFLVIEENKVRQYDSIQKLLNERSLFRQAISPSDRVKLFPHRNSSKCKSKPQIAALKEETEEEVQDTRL

| Compound | YFP iodide-influx quenching assay and short-circuit current (Ussing chamber) [1] | IC50 (hERG channel) | short-circuit current (Ussing chamber), forskolin-activated; complete block at 1 (CFTR) |
| --- | --- | --- | --- |
| COc1ccc(-c2oc3cc(OC)c(OC)c(O)c3c(=O)c2OC)cc1O [vitexicarpin, 3′,5-dihydroxy-3,4′,6,7-tetramethoxyflavone] | vitexicarpin inhibited ANO1 activation in a dose-dependent manner (Figure 2A) | 35.4 µM | – |
| O=C(O)c1ccc(/C=C2\SC(=S)N(c3cccc(C(F)(F)F)c3)C2=O)cc1 [CFTRinh-172] | – | – | 10 µM |
